Assay results published in US6344468B1, “Substituted isoindolones and their use as cyclic GMP modulators in medicaments” (Aventis Pharma Deutschland GmbH, priority 1998, dated 2002).

Target: T1, soluble guanylate cyclase (sGC) (Bos taurus, UniProt P16068+P19687)
T1 construct: The sGC which was employed had been isolated from bovine lung; from tissue; host or cells: bovine lung
T1 sequence (P16068 1-619): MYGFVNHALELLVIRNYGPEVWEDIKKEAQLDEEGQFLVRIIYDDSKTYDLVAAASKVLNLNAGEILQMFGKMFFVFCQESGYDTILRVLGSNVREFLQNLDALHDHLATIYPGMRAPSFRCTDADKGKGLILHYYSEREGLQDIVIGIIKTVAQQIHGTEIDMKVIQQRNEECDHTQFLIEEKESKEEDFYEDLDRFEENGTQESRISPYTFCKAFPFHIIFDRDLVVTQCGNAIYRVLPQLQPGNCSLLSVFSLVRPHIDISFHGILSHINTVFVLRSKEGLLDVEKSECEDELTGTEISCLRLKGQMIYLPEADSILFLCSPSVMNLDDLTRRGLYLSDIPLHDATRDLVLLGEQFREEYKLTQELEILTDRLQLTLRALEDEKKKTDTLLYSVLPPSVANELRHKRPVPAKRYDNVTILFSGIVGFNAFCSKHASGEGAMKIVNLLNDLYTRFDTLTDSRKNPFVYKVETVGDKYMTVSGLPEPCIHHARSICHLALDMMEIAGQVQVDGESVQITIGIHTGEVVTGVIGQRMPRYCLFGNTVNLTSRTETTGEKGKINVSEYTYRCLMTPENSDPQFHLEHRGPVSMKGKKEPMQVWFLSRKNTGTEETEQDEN
T1 sequence (P19687 1-691): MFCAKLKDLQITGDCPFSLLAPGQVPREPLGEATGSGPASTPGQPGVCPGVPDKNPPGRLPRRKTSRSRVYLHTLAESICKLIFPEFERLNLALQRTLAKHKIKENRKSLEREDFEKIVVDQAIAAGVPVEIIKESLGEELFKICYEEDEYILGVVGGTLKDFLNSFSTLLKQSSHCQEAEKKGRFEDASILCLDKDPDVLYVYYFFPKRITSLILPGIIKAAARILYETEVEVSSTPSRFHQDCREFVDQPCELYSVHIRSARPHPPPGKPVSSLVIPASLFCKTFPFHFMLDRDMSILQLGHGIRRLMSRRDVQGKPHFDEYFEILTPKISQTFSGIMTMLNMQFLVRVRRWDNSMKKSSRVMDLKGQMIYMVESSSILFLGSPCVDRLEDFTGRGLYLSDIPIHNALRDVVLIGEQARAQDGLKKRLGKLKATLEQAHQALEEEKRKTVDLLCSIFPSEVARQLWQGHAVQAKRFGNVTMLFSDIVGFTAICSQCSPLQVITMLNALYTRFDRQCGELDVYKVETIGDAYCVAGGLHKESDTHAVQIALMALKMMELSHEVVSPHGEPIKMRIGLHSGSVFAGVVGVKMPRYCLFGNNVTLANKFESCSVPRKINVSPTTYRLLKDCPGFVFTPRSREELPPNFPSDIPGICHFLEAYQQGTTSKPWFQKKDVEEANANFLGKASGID
Test: Activation of the soluble guanylate cyclase (cGMP enzyme immunoassay)
Type: biochemical
Conditions: sGC isolated from bovine lung; concentration 50 μM; n-fold stimulation of basal enzyme activity = [cGMP]test substance/[cGMP]control
Procedure: The activation of the soluble guanylate cyclase (sGC), which catalyzes the conversion of guanosine triphosphate (GTP) into cyclic guanosine monophosphate (cGMP) and pyrophosphate, by the compounds according to the invention was quantified with the aid of an enzyme immunoassay (EIA) from Amersham. To this end, the substances to be tested were initially incubated with sGC in microtiter plates, and the amount of the cGMP formed was then determined.
The sGC which was employed had been isolated from bovine lung (see Methods in Enzymology, volume 195, p. 377). The test solutions (100 μl per well) contained 50 mM triethanolamine (TEA) buffer (pH 7.5), 3 mM MgCl2, 3 mM reduced glutathione (GSH), 0.1 mM GTP, 1 mM 3-isobutyl-1-methylxanthine (IBMX), suitably diluted enzyme solution and the substance to be tested or, in control experiments, the solvent. The substances to be tested were dissolved in dimethyl sulfoxide (DMSO) and the solution was diluted with DMSO/water, so that the final concentration of the substance to be tested in the test mixture was 50 μM. The DMSO concentration in the test mixture was 5% (v/v). The reaction was initiated by addition of the sGC. The reaction mixture was incubated at 37° C. for 15 to 20 minutes and the reaction was then stopped by ice-cooling and addition of the stop reagent (50 mM EDTA, pH 8.0). An aliquot of 50 μl was taken and used for determining the cGMP content using the acetylation protocol of the Amersham cGMP-EIA kit. The absorption of the samples was measured at 450 nm (reference wavelength 620 nm) in a microtiter plate reader. The cGMP concentration was determined using a standard curve which was obtained under the same test conditions. The activation of sGC by a test substance is reported as the n-fold stimulation of the basal enzyme activity which was found in the control experiments (using solvent instead of test substance) (calculated using the formula
n-fold stimulation=[cGMP]test substance/[cGMP]control).

Row | n-fold stimulation | SMILES
1 | 2-fold | OCc1ccc(-c2nn(Cc3ccccc3)c3ccccc23)o1 [A, 1-benzyl-3-(5-hydroxymethyl-2-furyl)-indazole, reference compound]
2 | 16-fold | COc1cccc(CCN2C(=O)c3ccccc3C2(O)c2ccc(F)cc2)c1 (stereo not shown) [Example 17, 3-(4-Fluorophenyl)-3-hydroxy-2-(2-(3-methoxyphenyl)ethyl)-2,3-dihydro-isoindol-1-one]
3 | 11.8-fold | COc1cccc(CCN2C(=O)c3ccccc3C2(O)c2ccncc2)c1 (stereo not shown) [Example 29, 3-Hydroxy-2-(2-(3-methoxyphenyl)ethyl)-3-(4pyridyl)-2,3-dihydroisoindol-1-one]
4 | 9.5-fold | COc1cccc(CCN2C(=O)c3c(F)c(F)c(F)c(F)c3C2(O)c2ccc(F)cc2)c1 (stereo not shown) [Example 33, 4,5,6,7-Tetrafluoro-3-(4-fluorophenyl)-3-hydroxy-2-(2-(3-methoxyphenyl)-ethyl)-2,3-dihydroisoindol-1-one]
